Test results from patent publication US7511055B2, “Naphthyridin derivatives” (Hoffmann-La Roche Inc., priority 2005, dated 2009).

molecular target: T1, human mGlu 5a receptor (Homo sapiens, UniProt P41594); experiment: [3H]MPEP competition binding on membranes of EBNA cells transfected with human mGlu 5a receptor; conditions: competition with [3H]MPEP (2 nM), 1 h at 4° C., Ki=IC50/[1+L/Kd]
T1 construct: expressed in transfected cells; host or cells: EBNA cells (transient transfection); cell membrane homogenates
Experimental: The pharmacological activity of the compounds was tested using the following method: For binding experiments, cDNA encoding human mGlu 5a receptor was transiently transfected into EBNA cells using a procedure described by Schlaeger and Christensen [Cytotechnology 15:1-13 (1998)]. Cell membrane homogenates were stored at −80° C. until the day of assay where upon they were thawed and resuspended and polytronised in 15 mM Tris-HCl, 120 mM NaCl, 100 mM KCl, 25 mM CaCl2, 25 mM MgCl2 binding buffer at pH 7.4 to a final assay concentration of 20 μg protein/well.
Saturation isotherms were determined by addition of twelve [^3H]MPEP concentrations (0.04-100 nM) to these membranes (in a total volume of 200 μl) for 1 h at 4° C. Competition experiments were performed with a fixed concentration of [^3H]MPEP (2 nM) and IC50 values of test compounds evaluated using 11 concentrations (0.3-10,000 nM). Incubations were performed for 1 h at 4° C.
At the end of the incubation, membranes were filtered onto unifilter (96-well white microplate with bonded GF/C filter preincubated 1 h in 0.1% PEI in wash buffer, Packard BioScience, Meriden, Conn.) with a Filtermate 96 harvester (Packard BioScience) and washed 3 times with cold 50 mM Tris-HCl, pH 7.4 buffer. Nonspecific binding was measured in the presence of 10 μM MPEP. The radioactivity on the filter was counted (3 min) on a Packard Top-count microplate scintillation counter with quenching correction after addition of 45 μl of microscint 40 (Canberra Packard S.A., Zürich, Switzerland) and shaking for 20 min.
The inhibition (antagonists) curves were fitted with a four parameter logistic equation giving IC50, and Hill coefficient using iterative non linear curve fitting software (Xcel fit).
For binding experiments the Ki values of the compounds tested are given. The Ki value is defined by the following formula: Ki=IC50/[1+L/Kd] in which the IC50 values are those concentrations of the compounds tested which cause 50% inhibition of the competing radioligand ([^3H]MPEP). L is the concentration of radioligand used in the binding experiment and the Kd value of the radioligand is empirically determined for each batch of membranes prepared.

T1 sequence (P41594 21-1180 isoform P41594-2 limits assumed): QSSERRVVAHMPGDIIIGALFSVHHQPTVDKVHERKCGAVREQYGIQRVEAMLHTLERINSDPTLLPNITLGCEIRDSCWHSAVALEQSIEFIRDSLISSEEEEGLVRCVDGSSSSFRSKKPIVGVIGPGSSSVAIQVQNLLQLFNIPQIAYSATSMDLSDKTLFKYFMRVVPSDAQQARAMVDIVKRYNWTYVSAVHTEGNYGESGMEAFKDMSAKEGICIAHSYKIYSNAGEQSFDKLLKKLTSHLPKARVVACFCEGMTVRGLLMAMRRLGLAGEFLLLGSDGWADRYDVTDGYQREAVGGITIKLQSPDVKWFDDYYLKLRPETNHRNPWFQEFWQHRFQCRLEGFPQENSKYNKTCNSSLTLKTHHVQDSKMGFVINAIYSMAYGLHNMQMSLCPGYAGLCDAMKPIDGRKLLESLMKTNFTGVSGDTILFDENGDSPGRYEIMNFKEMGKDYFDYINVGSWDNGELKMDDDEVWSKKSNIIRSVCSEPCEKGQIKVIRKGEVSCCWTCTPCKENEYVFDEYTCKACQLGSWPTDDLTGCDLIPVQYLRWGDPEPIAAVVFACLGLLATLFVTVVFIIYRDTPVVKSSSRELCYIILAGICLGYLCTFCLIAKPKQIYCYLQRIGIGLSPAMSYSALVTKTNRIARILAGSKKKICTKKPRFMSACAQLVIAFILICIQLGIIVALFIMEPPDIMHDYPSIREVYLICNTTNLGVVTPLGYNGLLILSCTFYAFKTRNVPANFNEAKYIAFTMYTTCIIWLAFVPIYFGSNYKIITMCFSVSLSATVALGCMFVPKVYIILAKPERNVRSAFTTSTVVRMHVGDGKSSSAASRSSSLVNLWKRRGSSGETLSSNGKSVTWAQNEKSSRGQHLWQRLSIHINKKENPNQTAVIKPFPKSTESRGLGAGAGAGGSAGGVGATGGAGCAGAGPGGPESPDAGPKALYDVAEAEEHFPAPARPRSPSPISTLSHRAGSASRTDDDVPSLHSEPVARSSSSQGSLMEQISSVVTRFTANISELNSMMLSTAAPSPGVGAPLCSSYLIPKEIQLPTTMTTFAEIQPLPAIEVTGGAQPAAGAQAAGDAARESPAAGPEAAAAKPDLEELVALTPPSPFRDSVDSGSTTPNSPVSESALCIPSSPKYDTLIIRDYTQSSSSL

Row | SMILES | Ki
1 | Cc1cccc(Nc2nccc3cccnc23)n1 [Example 1, (6-Methyl-pyridin-2-yl)-[1,7]naphthyridin-8-yl-amine] | 0.025 µM
2 | Clc1cccc(Nc2nccc3cccnc23)c1 [Example 2, (3-Chloro-phenyl)-[1,7]naphthyridin-8-yl-amine] | 0.089 µM
3 | Cc1csc(Nc2nccc3cccnc23)n1 [Example 5, (4-Methyl-thiazol-2-yl)-[1,7]naphthyridin-8-yl-amine] | 0.062 µM
4 | Cc1cccc(Nc2ncc(-c3cccnc3)c3cccnc23)n1 [Example 6, (6-Methyl-pyridin-2-yl)-(5-pyridin-3-yl-[1,7]naphthyridin-8-yl)-amine] | 0.033 µM
5 | Clc1cccc(Nc2ncc(-c3cccnc3)c3cccnc23)c1 [Example 7, (3-Chloro-phenyl)-(5-pyridin-3-yl-[1,7]naphthyridin-8-yl)-amine] | 0.018 µM
6 | Clc1cc(Nc2ncc(-c3cccnc3)c3cccnc23)ccn1 [Example 8, (2-Chloro-pyridin-4-yl)-(5-pyridin-3-yl-[1,7]naphthyridin-8-yl)-amine] | 0.038 µM
7 | Cc1ccc(Nc2ncc(-c3cccnc3)c3cccnc23)nc1 [Example 9, (5-Methyl-pyridin-2-yl)-(5-pyridin-3-yl-[1,7]naphthyridin-8-yl)-amine] | 0.086 µM
8 | Fc1ccc(Nc2ncc(-c3cccnc3)c3cccnc23)nc1 [Example 10, (5-Fluoro-pyridin-2-yl)-(5-pyridin-3-yl-[1,7]naphthyridin-8-yl)-amine] | 0.019 µM
9 | Clc1cccc(Nc2ncc(-c3ccc(Cl)nc3)c3cccnc23)c1 [Example 11, (3-Chloro-phenyl)-[5-(6-chloro-pyridin-3-yl)-[1,7]naphthyridin-8-yl]-amine] | 0.008 µM
10 | COc1ccc(-c2cnc(Nc3ccnc(Cl)c3)c3ncccc23)cn1 [Example 12, (2-Chloro-pyridin-4-yl)-[5-(6-methoxy-pyridin-3-yl)-[1,7]naphthyridin-8-yl]-amine] | 0.056 µM
11 | Fc1cncc(-c2cnc(Nc3ccnc(Cl)c3)c3ncccc23)c1 [Example 14, (2-Chloro-pyridin-4-yl)-[5-(5-fluoro-pyridin-3-yl)-[1,7]naphthyridin-8-yl]-amine] | 0.066 µM
12 | Fc1ccc(Nc2ncc(-c3cncc(F)c3)c3cccnc23)nc1 [Example 15, (5-Fluoro-pyridin-2-yl)-[5-(5-fluoro-pyridin-3-yl)-[1,7]naphthyridin-8-yl]-amine] | 0.066 µM
13 | COc1cncc(-c2cnc(Nc3ccc(F)cn3)c3ncccc23)c1 [Example 17, (5-Fluoro-pyridin-2-yl)-[5-(5-methoxy-pyridin-3-yl)-[1,7]naphthyridin-8-yl]-amine] | 0.041 µM
14 | Clc1cc(Nc2ncc(-c3cncnc3)c3cccnc23)ccn1 [Example 18, (2-Chloro-pyridin-4-yl)-(5-pyrimidin-5-yl-[1,7]naphthyridin-8-yl)-amine] | 0.041 µM
15 | Fc1ccc(Nc2ncc(-c3cncnc3)c3cccnc23)nc1 [Example 19, (5-Fluoro-pyridin-2-yl)-(5-pyrimidin-5-yl-[1,7]naphthyridin-8-yl)-amine] | 0.044 µM
16 | COc1cccc(-c2cnc(Nc3nc(C)cs3)c3nc(C)ccc23)c1 [Example 42, [5-(3-Methoxy-phenyl)-2-methyl-[1,7]naphthyridin-8-yl]-(4-methyl-thiazol-2-yl)-amine] | 0.056 µM
17 | Cc1csc(Nc2ncc(-c3cccc(C(F)(F)F)c3)c3ccc(C)nc23)n1 [Example 43, (4-Methyl-thiazol-2-yl)-[2-methyl-5-(3-trifluoromethyl-phenyl)-[1,7]naphthyridin-8-yl]-amine] | 0.051 µM
18 | Cc1ccc2c(-c3cccc(F)c3)cnc(Nc3ccn(C)n3)c2n1 [Example 68, [5-(3-Fluoro-phenyl)-2-methyl-[1,7]naphthyridin-8-yl]-(1-methyl-1H-pyrazol-3-yl)-amine] | 0.038 µM
19 | Cc1csc(Nc2ncc(-c3cncc(C(F)(F)F)n3)c3ccc(C)nc23)n1 [Example 81, (4-Methyl-thiazol-2-yl)-[2-methyl-5-(6-trifluoromethyl-pyrazin-2-yl)-[1,7]naphthyridin-8-yl]-amine] | 0.051 µM
